Measured values from PubChem BioAssay AID330 (DTP/NCI, 2004).
Several values for one entry are separate records, joined by “and”; a condition that tells them apart may be missing. Equal values may be shown once. Toxic doses and inconclusive results are not listed. How the source made its calls: active means survival T/C of 150% or more; inactive means T/C below 125% in these data.

Test system: P388 leukemia ip, CD2F1 mice, survival T/C
Assay: NCI In Vivo Anticancer Drug Screen. Data for tumor model P388 Leukemia (intraperitoneal) in CD2F1 (CDF1) mice
Conditions: endpoint: median survival time, higher = longer survival
Outline: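 Mice carrying the transplanted tumor received test compound or vehicle. Survival was recorded in each group, and the value is the treated-group measurement divided by that of the vehicle-treated control group.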

[1] = dose: 50.0 mg/kg/injection, schedule: Q01DX009 (ip), vehicle: saline with Tween-80
[2] = dose: 100.0 mg/kg/injection, schedule: Q01DX009 (ip), vehicle: saline with Tween-80
[3] = dose: 12.5 mg/kg/injection, schedule: Q01DX009 (ip), vehicle: Klucel (hydroxypropylcellulose) (HPC)
[4] = dose: 25.0 mg/kg/injection, schedule: Q01DX009 (ip), vehicle: Klucel (hydroxypropylcellulose) (HPC)
[5] = dose: 50.0 mg/kg/injection, schedule: Q01DX009 (ip), vehicle: Klucel (hydroxypropylcellulose) (HPC)
[6] = dose: 3.12 mg/kg/injection, schedule: Q01DX005 (ip), vehicle: saline
[7] = dose: 6.25 mg/kg/injection, schedule: Q01DX005 (ip), vehicle: saline
[8] = dose: 12.5 mg/kg/injection, schedule: Q01DX005 (ip), vehicle: saline
[9] = dose: 60.0 mg/kg/injection, schedule: Q01DX005 (ip), vehicle: saline with Tween-80
[10] = dose: 120.0 mg/kg/injection, schedule: Q01DX005 (ip), vehicle: saline with Tween-80
[11] = dose: 1.56 mg/kg/injection, schedule: Q01DX009 (ip), vehicle: saline
[12] = dose: 25.0 mg/kg/injection, schedule: Q01DX005 (ip), vehicle: Klucel (hydroxypropylcellulose) (HPC)
[13] = dose: 50.0 mg/kg/injection, schedule: Q01DX005 (ip), vehicle: Klucel (hydroxypropylcellulose) (HPC)
[14] = dose: 100.0 mg/kg/injection, schedule: Q01DX005 (ip), vehicle: Klucel (hydroxypropylcellulose) (HPC)
[15] = dose: 100.0 mg/kg/injection, schedule: Q01DX009 (ip), vehicle: saline
[16] = dose: 200.0 mg/kg/injection, schedule: Q01DX009 (ip), vehicle: saline
[17] = dose: 50.0 mg/kg/injection, schedule: Q01DX009 (ip), vehicle: saline

Measured: T/C

CC1CCC(NC(=O)N(CCCl)N=O)CC1 (configuration not stated)
active: dose: 3.0 mg/kg/injection, schedule: Q04DX003 (ip), vehicle: other 163 % of control | dose: 3.75 mg/kg/injection, schedule: Q04DX003 (ip), vehicle: other 163 % of control | dose: 4.0 mg/kg/injection, schedule: Q01DX009 (ip), vehicle: saline sonified 166 % of control | dose: 4.0 mg/kg/injection, schedule: Q01DX009 (ip), vehicle: saline with Tween-80 154 % of control | dose: 5.0 mg/kg/injection, schedule: Q04DX003 (ip), vehicle: other 238 % of control | dose: 6.0 mg/kg/injection, schedule: Q04DX003 (ip), vehicle: other 247 % of control | dose: 7.5 mg/kg/injection, schedule: Q04DX003 (ip), vehicle: other 225 % of control | dose: 8.0 mg/kg/injection, schedule: Q01DX009 (ip), vehicle: saline with Tween-80 190 % of control | dose: 10.0 mg/kg/injection, schedule: Q04DX003 (ip), vehicle: other 160 % of control | dose: 12.0 mg/kg/injection, schedule: Q04DX003 (ip), vehicle: other 238 % of control | dose: 15.0 mg/kg/injection, schedule: Q04DX003 (ip), vehicle: other 441 % of control | dose: 15.0 mg/kg/injection, schedule: Q04DX003 (ip), vehicle: saline with Tween-80 218 % of control | dose: 20.0 mg/kg/injection, schedule: Q04DX003 (ip), vehicle: other 231 % of control | dose: 20.0 mg/kg/injection, schedule: Q04DX003 (ip), vehicle: saline with Tween-80 227 % of control and 250 % of control | dose: 30.0 mg/kg/injection, schedule: Q04DX003 (ip), vehicle: other 156 % of control
inactive: dose: 1.0 mg/kg/injection, schedule: Q01DX009 (ip), vehicle: saline sonified 112 % of control | dose: 2.0 mg/kg/injection, schedule: Q01DX009 (ip), vehicle: saline with Tween-80 122 % of control | dose: 8.0 mg/kg/injection, schedule: Q01DX009 (ip), vehicle: saline sonified 100 % of control | dose: 10.0 mg/kg/injection, schedule: Q04DX003 (ip), vehicle: saline with Tween-80 108 % of control and 120 % of control | dose: 16.0 mg/kg/injection, schedule: Q01DX009 (ip), vehicle: saline with Tween-80 109 % of control | dose: 24.0 mg/kg/injection, schedule: Q04DX003 (ip), vehicle: other 110 % of control

O=C(N/N=C/c1ccccc1F)c1ccncc1
inactive: [1] 98 % of control | [2] 97 % of control | dose: 200.0 mg/kg/injection, schedule: Q01DX009 (ip), vehicle: saline with Tween-80 104 % of control

Clc1c2ccccc2[se][n+]1Cc1ccccc1
inactive: [3] 104 % of control and 108 % of control and 111 % of control | [4] 105 % of control and 106 % of control and 112 % of control | [5] 105 % of control and 107 % of control and 121 % of control | dose: 100.0 mg/kg/injection, schedule: Q01DX009 (ip), vehicle: Klucel (hydroxypropylcellulose) (HPC) 106 % of control and 110 % of control

CCOC(=O)C12C3CC4C1C1(Cl)C(Cl)(Cl)C2(Cl)C2(Cl)C3C4C12Cl (configuration not stated)
inactive: dose: 100.0 mg/kg/injection, schedule: Q04DX002 (ip), vehicle: saline with Tween-80 94 % of control | dose: 200.0 mg/kg/injection, schedule: Q04DX002 (ip), vehicle: saline with Tween-80 93 % of control | dose: 400.0 mg/kg/injection, schedule: Q04DX002 (ip), vehicle: saline with Tween-80 109 % of control

CC(=O)NC1=CC(=Nc2ccc(N(C)C)cc2)C=CC1=O
inactive: [6] 114 % of control | [7] 112 % of control | [8] 102 % of control

O=C(Nc1ccc(Cl)cc1)Nc1nnc2nc(C(C(=O)c3ccc(O)cc3O)c3nc4nnc(NC(=O)Nc5ccc(Cl)cc5)n4[nH]c3=O)c(=O)[nH]n12
inactive: [9] 103 % of control | [10] 95 % of control

C1CCC([Se][Se]C2CCCC2)C1
inactive: [3] 104 % of control | [4] 110 % of control | [5] 99 % of control and 101 % of control

C[N+]1(C2CCCCC2c2cccc(O)c2)CCCC1 (configuration not stated)
inactive: dose: 0.39 mg/kg/injection, schedule: Q01DX009 (ip), vehicle: saline 98 % of control | dose: 0.79 mg/kg/injection, schedule: Q01DX009 (ip), vehicle: saline 104 % of control | [11] 98 % of control

CCCCCC[N+]1(CC)CCCC1
inactive: dose: 0.78 mg/kg/injection, schedule: Q01DX009 (ip), vehicle: saline 97 % of control | [11] 113 % of control | dose: 3.12 mg/kg/injection, schedule: Q01DX009 (ip), vehicle: saline 98 % of control and 100 % of control

CC(C)=CCc1c2ccoc2c(O)c2oc(=O)ccc12
inactive: dose: 25.0 mg/kg/injection, schedule: Q01DX009 (ip), vehicle: saline with Tween-80 106 % of control | [1] 105 % of control | [2] 105 % of control

COc1cc(NS(C)(=O)=O)ccc1Nc1c2ccc([N+](=O)[O-])cc2nc2c(C)cccc12
inactive: dose: 6.0 mg/kg/injection, schedule: Q01DX009 (ip), vehicle: saline with Tween-80 100 % of control
active: dose: 3.0 mg/kg/injection, schedule: Q01DX009 (ip), vehicle: saline with Tween-80 272 % of control | dose: 3.0 mg/kg/injection, schedule: Q04DX003 (ip), vehicle: saline with Tween-80 181 % of control | dose: 6.0 mg/kg/injection, schedule: Q04DX003 (ip), vehicle: saline with Tween-80 209 % of control | dose: 7.9 mg/kg/injection, schedule: Q04DX003 (ip), vehicle: saline with Tween-80 218 % of control | dose: 12.0 mg/kg/injection, schedule: Q04DX003 (ip), vehicle: saline with Tween-80 181 % of control and 231 % of control

CC(=O)OCC1OC(n2cnc3c(Cl)nc(N)nc32)C(OC(C)=O)C1OC(C)=O (configuration not stated)
inactive: [12] 101 % of control | [13] 101 % of control | [14] 108 % of control | dose: 200.0 mg/kg/injection, schedule: Q01DX005 (ip), vehicle: Klucel (hydroxypropylcellulose) (HPC) 105 % of control

N#CCCCCCCCCCCC(=O)O
inactive: [15] 93 % of control | [16] 91 % of control | dose: 400.0 mg/kg/injection, schedule: Q01DX009 (ip), vehicle: saline 94 % of control

CC[P+](CC)(c1ccccc1)c1ccccc1
inactive: [6] 94 % of control | [7] 95 % of control | [8] 100 % of control

CSc1cccnc1SC
inactive: [17] 98 % of control | [15] 98 % of control | [16] 92 % of control

Nc1ccc(C2C(=[N+]([O-])[O-])C=C([N+](=O)[O-])c3[nH]o[n+](=O)c32)cc1 (configuration not stated)
inactive: dose: 50.0 mg/kg/injection, schedule: Q01DX001 (ip), vehicle: saline with Tween-80 100 % of control | dose: 100.0 mg/kg/injection, schedule: Q01DX001 (ip), vehicle: saline with Tween-80 100 % of control

COC(=O)c1c(-c2ccc(OC)cc2)c(-c2ccc(OC)cc2)[nH]c(=O)c1C#N
inactive: [9] 100 % of control | [10] 100 % of control | dose: 240.0 mg/kg/injection, schedule: Q01DX005 (ip), vehicle: saline with Tween-80 99 % of control

CCN(CC)CCOC(=O)Cc1ccc2c(=O)cc(-c3ccc(C)cc3)oc2c1
inactive: dose: 12.5 mg/kg/injection, schedule: Q01DX005 (ip), vehicle: Klucel (hydroxypropylcellulose) (HPC) 109 % of control | [12] 108 % of control | [13] 103 % of control and 114 % of control | [14] 121 % of control

Cc1ccc(/C(=N/NS(=O)(=O)c2ccc(C)cc2)C(C)c2ccccc2)cc1 (configuration not stated)
inactive: dose: 100.0 mg/kg/injection, schedule: Q01DX001 (ip), vehicle: Klucel (hydroxypropylcellulose) (HPC) 99 % of control | dose: 200.0 mg/kg/injection, schedule: Q01DX001 (ip), vehicle: Klucel (hydroxypropylcellulose) (HPC) 100 % of control | dose: 400.0 mg/kg/injection, schedule: Q01DX001 (ip), vehicle: Klucel (hydroxypropylcellulose) (HPC) 99 % of control

CNC(=O)OC1CC2CCCCC2C([N+](C)(C)C)C1 (configuration not stated)
inactive: dose: 12.5 mg/kg/injection, schedule: Q01DX009 (ip), vehicle: saline 105 % of control | dose: 25.0 mg/kg/injection, schedule: Q01DX009 (ip), vehicle: saline 112 % of control | [17] 100 % of control and 106 % of control
